Laboratory results published in patent publication US20240245677A1, “SELECTED COMPOUNDS FOR TARGETED DEGRADATION OF BRD9” (C4 THERAPEUTICS, INC., priority 2021, published 2024).

Columns and labels:
[1] = Competitive equilibration experiment at 25° C.; type: physicochemical; conditions: 7 days
Protocol: Competitive equilibration experiments were conducted at 25° C. to investigate the thermodynamically stable anhydrate. 5 mg of Pattern G, and 5 mg of Pattern H, were added to about 200 μL of saturated solution in selected solvents. Obtained suspension was stirred at 25° C. for 7 days. Obtained suspensions were centrifuged and obtained solids were analyzed by XRPD immediately.

[2] = Bulk stability study (1 week stress conditions; drying); conditions: for physical and chemical stability: 25° C./92% RH open vial, 40° C./75% RH open vial or 60° C. closed vial, 1 week
[3] = Hygroscopicity by DVS at 25° C.; type: physicochemical; conditions: DVS 25° C.
Protocol: Hygroscopicity of Form A and Form N was investigated by DVS at 25° C. […] Form A converted to Form K after the DVS test. Form K is a metastable hydrate. It reverted back to Form A after exposure to ambient condition.
Hygroscopicity of the free base Pattern A* and the urea cocrystal Form P were evaluated by DVS at 25° C.

[4] = Compression and ball-milling experiments; type: physicochemical; conditions: for behavior under ball milling: ball milling for 5 min; for behavior under compression: 2 to 10 MPa
Protocol: Feasibility of formulation processes was evaluated with compression and ball-milling experiments. […] However, the hydrate Form N is sensitive to pressure.

[5] = Variable humidity XRPD (VH-XRPD) experiments; type: physicochemical; conditions: listed as Pattern N
Protocol: Based on DVS results, variable humidity XRPD was conducted for Pattern A at different humidity conditions, including 40%, 70%, 90%, 70%, 40%, 20%, 0%, 40% RH conditions.
Based on DVS results, variable humidity XRPD was conducted for Pattern N, at different humidity conditions, including 40%, 70%, 90%, 70%, 40%, 20%, 0%, 40% RH conditions.

[6] = Equilibration with solvents at 25° C. for 2 weeks (XRPD); type: physicochemical
Protocol: (§1) Obtained suspension was filtered through a 0.45 μm nylon membrane filter by centrifugation at 14,000 rpm for 5 min. Solid parts (wet cakes) were investigated by XRPD immediately. Some samples with Form K were exposure to ambient condition and investigated by XRPD again.

[7] = Equilibration with solvents at 50° C. for 1 week (XRPD); type: physicochemical
Protocol: as §1, with “The obtained” for “Obtained”, “immediately. For samples with different XRPD results, additional analysis including HPLC, DSC, TGA, ^1H-NMR and KF was performed.” for “immediately.”

[8] = Equilibration under a temperature cycle (XRPD); type: physicochemical
Protocol: as §1, with “immediately. For samples with different XRPD results, additional analysis including HPLC, DSC, TGA, ^1H-NMR and KF was performed.” for “immediately.”

[9] = Approximate solubility in solvents at 25° C. and 50° C. (visual observation); type: physicochemical; conditions: for Solubility (mg/mL), 25° C.: target conc. = 250 mg/mL; for Solubility (mg/mL), 50° C.: target conc. = 500 mg/mL
Protocol: Max. volume of each solvent added was 1 mL. Approximate solubility was determined by visual observation.
Max volume of each solvent added was 1 mL. Approximate solubility was determined by visual observation.

COc1cc(-c2cn(C)c(=O)c(C)c2C)cc(OC)c1CN1CC[C@H](N2CCN(c3ccc(N[C@H]4CCC(=O)NC4=O)cc3F)CC2)C(F)(F)C1 [Pattern G and Pattern H]
XRPD after competitive equilibration at 25° C. ([1]; Acetone): Pattern B
XRPD after competitive equilibration at 25° C. ([1]; Ethanol): Low crystallinity, difficult to differentiate
XRPD after competitive equilibration at 25° C. ([1]; Ethyl acetate): Pattern F
XRPD after competitive equilibration at 25° C. ([1]; Toluene): Pattern G

COc1cc(-c2cn(C)c(=O)c(C)c2C)cc(OC)c1CN1CC[C@H](N2CCN(c3ccc(N[C@H]4CCC(=O)NC4=O)cc3F)CC2)C(F)(F)C1 [Form A]
physical and chemical stability [2]: physically and chemically stable
water uptake ([3]; from 40% RH to 70% RH): about 2.0%
behavior under ball milling [4]: no obvious crystallinity decrease
behavior under compression [4]: no form change and no obvious crystallinity decrease even under 10 MPa

COc1cc(-c2cn(C)c(=O)c(C)c2C)cc(OC)c1CN1CC[C@H](N2CCN(c3ccc(N[C@H]4CCC(=O)NC4=O)cc3F)CC2)C(F)(F)C1 [Form N]
physical and chemical stability [2]: physically and chemically stable
form change and degradation after drying ([2]; 50° C. under vacuum for 2 days): No form change and no degradation
water uptake ([3]; from 40% RH to 80% RH): about 1.0%
XRPD ([5]; 0% RH): Pattern N
XRPD ([5]; 20% RH): Pattern N
XRPD ([5]; 40% RH (after 90% RH, falling)): Pattern N
XRPD ([5]; 40% RH (first step)): Pattern N
XRPD ([5]; 40% RH (last step, after 0% RH)): Pattern N
XRPD ([5]; 70% RH (after 90% RH)): Pattern N
XRPD ([5]; 70% RH (humidity rising)): Pattern N
XRPD ([5]; 90% RH): Pattern N
behavior under ball milling [4]: no obvious crystallinity decrease
behavior under compression [4]: crystallinity decrease even compressed under 2 MPa

COc1cc(-c2cn(C)c(=O)c(C)c2C)cc(OC)c1CN1CC[C@H](N2CCN(c3ccc(N[C@H]4CCC(=O)NC4=O)cc3F)CC2)C(F)(F)C1 [Pattern E]
XRPD after equilibration at 25° C. for 2 weeks ([6]; 1,4-dioxane/heptane (v:v = 1:1)): +Pattern B
XRPD after equilibration at 25° C. for 2 weeks ([6]; 2-MeTHF): +Pattern B
XRPD after equilibration at 25° C. for 2 weeks ([6]; Acetone): +Pattern B
XRPD after equilibration at 25° C. for 2 weeks ([6]; Acetone/water (v:v = 36:64) a.w. = 0.90): +Pattern K
XRPD after equilibration at 25° C. for 2 weeks ([6]; Acetone/water (v:v = 76:24) a.w. = 0.70): +Pattern B
XRPD after equilibration at 25° C. for 2 weeks ([6]; Acetone/water (v:v = 92:8) a.w. = 0.50): +Pattern B
XRPD after equilibration at 25° C. for 2 weeks ([6]; Acetonitrile): +Pattern B
XRPD after equilibration at 25° C. for 2 weeks ([6]; DCM/heptane (v:v = 1:1)): +Pattern F
XRPD after equilibration at 25° C. for 2 weeks ([6]; DMSO/water (v:v = 23:77) a.w. = 0.91): +Pattern K
XRPD after equilibration at 25° C. for 2 weeks ([6]; Ethanol): +Pattern A
XRPD after equilibration at 25° C. for 2 weeks ([6]; Ethyl acetate): +Pattern F
XRPD after equilibration at 25° C. for 2 weeks ([6]; Methanol): +Pattern K
XRPD after equilibration at 25° C. for 2 weeks ([6]; THF/heptane (v:v = 1:1)): +Pattern B
XRPD after equilibration at 25° C. for 2 weeks ([6]; Toluene): +Pattern K
XRPD ([7]; equilibration at 50° C. for 1 week, 1,4-Dioxane/heptane (v:v = 1:1)): +Pattern B
XRPD ([7]; equilibration at 50° C. for 1 week, 2-MeTHF): +Pattern B
XRPD ([7]; equilibration at 50° C. for 1 week, Acetone): +Pattern B
XRPD ([7]; equilibration at 50° C. for 1 week, Acetone/water (v:v = 36:64) a.w. = 0.90): +Pattern K
XRPD ([7]; equilibration at 50° C. for 1 week, Acetone/water (v:v = 76:24) a.w. = 0.71): +Pattern B
XRPD ([7]; equilibration at 50° C. for 1 week, Acetone/water (v:v = 92:8) a.w. = 0.50): +Pattern B
XRPD ([7]; equilibration at 50° C. for 1 week, Acetonitrile): +Pattern F
XRPD ([7]; equilibration at 50° C. for 1 week, DMSO/water (v:v = 23:77) a.w. = 0.91): +Pattern K
XRPD ([7]; equilibration at 50° C. for 1 week, DMSO/water (v:v = 64:36) a.w. = 0.53): +Pattern B
XRPD ([7]; equilibration at 50° C. for 1 week, Ethanol): +Pattern F
XRPD ([7]; equilibration at 50° C. for 1 week, Ethyl acetate): +Pattern F
XRPD ([7]; equilibration at 50° C. for 1 week, THF/heptane (v:v = 1:1)): +Pattern B
XRPD ([7]; equilibration at 50° C. for 1 week, Toluene): +Pattern G
XRPD ([8]; equilibration under a temperature cycle, 1,4-Dioxane/heptane (v:v = 1:1)): +Pattern B
XRPD ([8]; equilibration under a temperature cycle, 2-MeTHF): +Pattern F
XRPD ([8]; equilibration under a temperature cycle, Acetone): +Pattern B
XRPD ([8]; equilibration under a temperature cycle, Acetone/water (v:v = 36:64)): +Pattern K
XRPD ([8]; equilibration under a temperature cycle, Acetone/water (v:v = 76:24)): +Pattern A
XRPD ([8]; equilibration under a temperature cycle, Acetone/water (v:v = 92:8)): +Pattern B
XRPD ([8]; equilibration under a temperature cycle, Acetonitrile): +Pattern B
XRPD ([8]; equilibration under a temperature cycle, DCM/heptane (v:v = 1:1)): +Pattern F
XRPD ([8]; equilibration under a temperature cycle, DMSO/water (v:v = 64:36)): +Pattern F
XRPD ([8]; equilibration under a temperature cycle, Ethanol): +Pattern F
XRPD ([8]; equilibration under a temperature cycle, Ethyl acetate): +Pattern F
XRPD ([8]; equilibration under a temperature cycle, Methanol): +Pattern B
XRPD ([8]; equilibration under a temperature cycle, THF/heptane (v:v = 1:1)): +Pattern F
XRPD ([8]; equilibration under a temperature cycle, Toluene): +Pattern A
Solubility (mg/mL), 25° C. ([9]; 1,4-Dioxane): >250 mg/mL
Solubility (mg/mL), 50° C. ([9]; 1,4-Dioxane): >500 mg/mL
Solubility (mg/mL), 25° C. ([9]; 2-MeTHF): 83 to 125 mg/mL
Solubility (mg/mL), 50° C. ([9]; 2-MeTHF): 250 to 500 mg/mL
Solubility (mg/mL), 25° C. ([9]; Acetone): 20 to 25 mg/mL
Solubility (mg/mL), 50° C. ([9]; Acetone): 100 to 200 mg/mL
Solubility (mg/mL), 25° C. ([9]; Acetonitrile): 5 to 6 mg/mL
Solubility (mg/mL), 50° C. ([9]; Acetonitrile): <10 mg/mL
Solubility (mg/mL), 25° C. ([9]; DCM): 125 to 250 mg/mL
Solubility (mg/mL), 25° C. ([9]; DMSO): >250 mg/mL
Solubility (mg/mL), 50° C. ([9]; DMSO): >500 mg/mL
Solubility (mg/mL), 25° C. ([9]; Ethanol): 6 to 8 mg/mL
Solubility (mg/mL), 50° C. ([9]; Ethanol): 16 to 25 mg/mL
Solubility (mg/mL), 25° C. ([9]; Ethyl acetate): 6 to 8 mg/mL
Solubility (mg/mL), 50° C. ([9]; Ethyl acetate): 14 to 20 mg/mL
Solubility (mg/mL), 25° C. ([9]; Heptane): <5 mg/mL
Solubility (mg/mL), 50° C. ([9]; Heptane): <10 mg/mL
Solubility (mg/mL), 25° C. ([9]; MTBE (Methyl tert-butyl ether)): <5 mg/mL
Solubility (mg/mL), 50° C. ([9]; MTBE): <10 mg/mL
Solubility (mg/mL), 25° C. ([9]; Methanol): 8 to 13 mg/mL
Solubility (mg/mL), 50° C. ([9]; Methanol): 18 to 22 mg/mL
Solubility (mg/mL), 25° C. ([9]; Methanol/water (v:v = 95:5)): 8 to 13 mg/mL
Solubility (mg/mL), 50° C. ([9]; Methanol/water (v:v = 95:5)): 14 to 20 mg/mL
Solubility (mg/mL), 25° C. ([9]; THF (Tetrahydrofuran)): >250 mg/mL
Solubility (mg/mL), 50° C. ([9]; THF): >500 mg/mL
Solubility (mg/mL), 25° C. ([9]; Toluene): <5 mg/mL
Solubility (mg/mL), 50° C. ([9]; Toluene): <10 mg/mL
Solubility (mg/mL), 25° C. ([9]; Water): <5 mg/mL
Solubility (mg/mL), 50° C. ([9]; Water): <10 mg/mL
